Assay results from PubChem BioAssay (NCI).
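Five compound concentrations were applied to cells in 96-well plates for 48 hours; endpoints were derived by simple linear interpolation of the resulting dose-response curve. At the GI50, growth is halved. TGI: total growth inhibition.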

Columns and labels:
Assay in all cases: NCI anticancer screen, dose series, 48 h
U251 CNS = tested on: U251 CNS
K-562 leukemia = tested on: K-562 leukemia
MDA-MB-468 breast = tested on: MDA-MB-468 breast
HCT-116 colon = tested on: HCT-116 colon
OVCAR-8 ovarian = tested on: OVCAR-8 ovarian
HCT-15 colon = tested on: HCT-15 colon
MALME-3M melanoma = tested on: MALME-3M melanoma
CCRF-CEM leukemia = tested on: CCRF-CEM leukemia
DU-145 prostate = tested on: DU-145 prostate
HOP-92 NSCLC = tested on: HOP-92 NSCLC
OVCAR-4 ovarian = tested on: OVCAR-4 ovarian
IGROV1 ovarian = tested on: IGROV1 ovarian
ACHN renal = tested on: ACHN renal
A498 renal = tested on: A498 renal
SNB-19 CNS = tested on: SNB-19 CNS
A549 NSCLC = tested on: A549 NSCLC
UO-31 renal = tested on: UO-31 renal
COLO 205 colon = tested on: COLO 205 colon
HCC-2998 colon = tested on: HCC-2998 colon
TK-10 renal = tested on: TK-10 renal
M14 melanoma = tested on: M14 melanoma
SF-268 CNS = tested on: SF-268 CNS
SK-MEL-2 melanoma = tested on: SK-MEL-2 melanoma
HT29 colon = tested on: HT29 colon
OVCAR-3 ovarian = tested on: OVCAR-3 ovarian
SF-539 CNS = tested on: SF-539 CNS
RXF 393 renal = tested on: RXF 393 renal
HL-60(TB) leukemia = tested on: HL-60(TB) leukemia
SK-MEL-28 melanoma = tested on: SK-MEL-28 melanoma
SK-MEL-5 melanoma = tested on: SK-MEL-5 melanoma
SR leukemia = tested on: SR leukemia
786-0 renal = tested on: 786-0 renal
NCI-H460 lung = tested on: NCI-H460 lung
SNB-75 CNS = tested on: SNB-75 CNS
LOX IMVI melanoma = tested on: LOX IMVI melanoma
EKVX NSCLC = tested on: EKVX NSCLC
HS 578T breast = tested on: HS 578T breast
MCF7 breast = tested on: MCF7 breast
MDA-MB-435 = tested on: MDA-MB-435
KM12 colon = tested on: KM12 colon
SN12C renal = tested on: SN12C renal
T-47D breast = tested on: T-47D breast
PC-3 prostate = tested on: PC-3 prostate
NCI-H522 lung = tested on: NCI-H522 lung
OVCAR-5 ovarian = tested on: OVCAR-5 ovarian
NCI-H226 lung = tested on: NCI-H226 lung
NCI/ADR-RES ovarian = tested on: NCI/ADR-RES ovarian
MOLT-4 leukemia = tested on: MOLT-4 leukemia
UACC-62 melanoma = tested on: UACC-62 melanoma
HOP-62 NSCLC = tested on: HOP-62 NSCLC
NCI-H23 lung = tested on: NCI-H23 lung
SW-620 colon = tested on: SW-620 colon
RPMI-8226 leukemia = tested on: RPMI-8226 leukemia
MDA-MB-231 breast = tested on: MDA-MB-231 breast
BT-549 breast = tested on: BT-549 breast
UACC-257 melanoma = tested on: UACC-257 melanoma
SK-OV-3 ovarian = tested on: SK-OV-3 ovarian
SF-295 CNS = tested on: SF-295 CNS
CAKI-1 renal = tested on: CAKI-1 renal

## O=C(Cn1c(-c2ccccc2)nc2ccccc21)N=Nc1c(O)[nH]c2ccc(Br)cc12
U251 CNS
  GI50: 16.2 µM
  TGI: 31.7 µM
K-562 leukemia
  GI50: 9.48 µM
  TGI: > 100 µM
MDA-MB-468 breast
  GI50: 2.54 µM
  TGI: 9.55 µM
HCT-116 colon
  GI50: 18.2 µM
  TGI: 45.8 µM
OVCAR-8 ovarian
  GI50: 14.4 µM
  TGI: 31.1 µM
HCT-15 colon
  GI50: 12 µM
  TGI: 38.9 µM
MALME-3M melanoma
  GI50: 12.3 µM
  TGI: 27.1 µM
CCRF-CEM leukemia
  GI50: 34.8 µM
  TGI: > 100 µM
DU-145 prostate
  GI50: 19.6 µM
  TGI: 42.3 µM
HOP-92 NSCLC
  GI50: 15.4 µM
  TGI: 34.2 µM
OVCAR-4 ovarian
  GI50: 15.9 µM
  TGI: 36.5 µM
IGROV1 ovarian
  GI50: 12 µM
  TGI: 29.7 µM
ACHN renal
  GI50: 15.6 µM
  TGI: 34.1 µM
A498 renal
  GI50: 16 µM
  TGI: 31.1 µM
SNB-19 CNS
  GI50: 17.3 µM
  TGI: 40.8 µM
A549 NSCLC
  GI50: 14.7 µM
  TGI: 34.8 µM
UO-31 renal
  GI50: 10 µM
  TGI: 26.8 µM
COLO 205 colon
  GI50: 18.9 µM
  TGI: 46.2 µM
HCC-2998 colon
  GI50: 14.8 µM
  TGI: 31.3 µM
TK-10 renal
  GI50: 21 µM
  TGI: 40.3 µM
M14 melanoma
  GI50: 18.8 µM
  TGI: 52.3 µM
SF-268 CNS
  GI50: 16.2 µM
  TGI: 38.3 µM
SK-MEL-2 melanoma
  GI50: 17 µM
  TGI: 42.9 µM
HT29 colon
  GI50: 14.3 µM
  TGI: 30.4 µM
OVCAR-3 ovarian
  GI50: 14.3 µM
  TGI: 30.3 µM
SF-539 CNS
  GI50: 14.4 µM
  TGI: 29.7 µM
RXF 393 renal
  GI50: 10.3 µM
  TGI: 23.9 µM
HL-60(TB) leukemia
  GI50: 25.5 µM
  TGI: > 100 µM
SK-MEL-28 melanoma
  GI50: 17.8 µM
  TGI: 36.7 µM
SK-MEL-5 melanoma
  GI50: 13.9 µM
  TGI: 30.9 µM
SR leukemia
  GI50: 6.04 µM
  TGI: > 100 µM
786-0 renal
  GI50: 17.5 µM
  TGI: 34.7 µM
NCI-H460 lung
  GI50: 16.8 µM
  TGI: 35 µM
SNB-75 CNS
  GI50: 9.46 µM
  TGI: 23.6 µM
LOX IMVI melanoma
  GI50: 15 µM
  TGI: 31.7 µM
EKVX NSCLC
  GI50: 11.3 µM
  TGI: 34.1 µM
HS 578T breast
  GI50: 14.9 µM
  TGI: 47.3 µM
MCF7 breast
  GI50: 5.87 µM
  TGI: 25.6 µM
MDA-MB-435
  GI50: 5.9 µM
  TGI: 21.3 µM
KM12 colon
  GI50: 14.8 µM
  TGI: 52.9 µM
SN12C renal
  GI50: 16.2 µM
  TGI: 41.8 µM
T-47D breast
  GI50: 11.5 µM
  TGI: 33.8 µM
PC-3 prostate
  GI50: 15 µM
  TGI: 43.2 µM
NCI-H522 lung
  GI50: 7.31 µM
  TGI: 22.4 µM
OVCAR-5 ovarian
  GI50: 22.9 µM
  TGI: 81.4 µM
NCI-H226 lung
  GI50: 11.1 µM
  TGI: 28.3 µM
NCI/ADR-RES ovarian
  GI50: 15.4 µM
  TGI: 33.8 µM
MOLT-4 leukemia
  GI50: 17.6 µM
  TGI: > 100 µM
UACC-62 melanoma
  GI50: 12.1 µM
  TGI: 25.9 µM
HOP-62 NSCLC
  GI50: 14.6 µM
  TGI: 33 µM
NCI-H23 lung
  GI50: 16.3 µM
  TGI: 36.5 µM
SW-620 colon
  GI50: 18.1 µM
  TGI: 52.9 µM
RPMI-8226 leukemia
  GI50: 35.6 µM
  TGI: > 100 µM
MDA-MB-231 breast
  GI50: 12 µM
  TGI: 27.9 µM
BT-549 breast
  GI50: 16 µM
  TGI: 36.9 µM
UACC-257 melanoma
  GI50: 15.2 µM
  TGI: 31.7 µM
SK-OV-3 ovarian
  GI50: 16.6 µM
  TGI: 38.4 µM
SF-295 CNS
  GI50: 12.7 µM
  TGI: 28 µM
CAKI-1 renal
  GI50: 11.8 µM
  TGI: 25.7 µM
